According to patent publication US7189718B2, “Non-nucleoside reverse transcriptase inhibitors” (Roche Palo Alto LLC, priority 2003, dated 2007):

Target: T1, HIV-1 RT (Human immunodeficiency virus type 1 group M subtype B, UniProt P03366)
T1 construct: HIV-1 RT assay was carried out in 96-well Millipore MultiScreen MADVNOB50 plates using purified recombinant enzyme
Assay: HIV Reverse Transcriptase Assay: Inhibitor IC50 Determination
Format: biochemical
Settings: purified recombinant enzyme, poly(rA)/oligo(dT)16 template-primer, 4 nM HIV-1 RT, 37° C. for 30 min, 10% DMSO; read-out: RT inhibition IC50
Description: HIV Reverse Transcriptase Assay: Inhibitor IC50 Determination
HIV-1 RT assay was carried out in 96-well Millipore MultiScreen MADVNOB50 plates using purified recombinant enzyme and a poly(rA)/oligo(dT)16 template-primer in a total volume of 50 μL. The assay constituents were 50 mM Tris/HCl 50 mM NaCl, 1 mM EDTA, 6 mM MgCl2, 5 μM dTTP, 0.15 μCi [^3H] dTTP, 5 μg/ml poly (rA) pre annealed to 2.5 μg/ml oligo (dT)16 and a range of inhibitor concentrations in a final concentration of 10% DMSO. Reactions were initiated by adding 4 nM HIV-1 RT and after incubation at 37° C. for 30 min, they were stopped by the addition of 50 μl ice cold 20% TCA and allowed to precipitate at 4° C. for 30 min. The precipitates were collected by applying vacuum to the plate and sequentially washing with 3×200 μl of 10% TCA and 2×200 μl 70% ethanol. Finally, the plates were dried and radioactivity counted in a Packard TopCounter after the addition of 25 μl scintillation fluid per well. IC50's, were calculated by plotting % inhibition versus log10 inhibitor concentrations.

| Structure (SMILES) | IC50 [nM] |
| --- | --- |
| O=c1ccc(Cc2ccc(Cl)c(Oc3cc(Cl)ccc3Br)c2)n[nH]1 [I-77, 6-[3-(2-Bromo-5-chloro-phenoxy)-4-chloro-benzyl]-2H-pyridazin-3-one] | 24.2 |
| CCc1ccc(Cc2cc(C)c(=O)[nH]n2)cc1Oc1cc(Cl)cc(C#N)c1 [I-98, 3-Chloro-5-[2-ethyl-5-(5-methyl-6-oxo-1,6-dihydro-pyridazin-3-ylmethyl)-phenoxy]-benzonitrile] | 19.4 |
| CCc1ccc(Cc2ccc(=O)[nH]n2)cc1Oc1cc(C)cc(C#N)c1 [I-100, 3-[2-Ethyl-5-(6-oxo-1,6-dihydro-ridazin-3-ylmethyl)-phenoxy]-5-methyl-nzonitrile] | 24.1 |
| O=c1ccc(Cc2ccc(Cl)c(Oc3cc(Cl)ccc3Cl)c2)n[nH]1 [I-102, 6-[4-Chloro-3-(2,5-dichloro-phenoxy)-benzyl]-2H-pyridazin-3-one] | 20.6 |
| Cc1cc(Cc2ccc(Cl)c(Oc3cc(Cl)ccc3Br)c2)n[nH]c1=O [I-103, 6-[3-(2-Bromo-5-chloro-phenoxy)-4-chloro-benzyl]-4-methyl-2H-pyridazin-3-one] | 9.35 |
| Cc1cc(Cc2ccc(Cl)c(Oc3cc(Cl)cc(C#N)c3)c2)n[nH]c1=O [I-108, 3-Chloro-5-[2-chloro-5-(5-methyl-6-oxo-1,6-dihydro-pyridazin-3-ylmethyl)-phenoxy]-benzonitrile] | 11.1 |
| CCc1ccc(Cc2cc(C)c(=O)[nH]n2)cc1Oc1cc(C)cc(C#N)c1 [I-109, 3-[2-Ethyl-5-(5-methyl-6-oxo-1,6-dihydro-yridazin-3-ylmethyl)-phenoxy]-5-methyl-benzonitrile] | 21.6 |
| Cc1ccc(Cl)cc1Oc1cc(Cc2cc(C)c(=O)[nH]n2)ccc1Cl [I-123, 6-[4-Chloro-3-(5-chloro-2-methyl-phenoxy)-benzyl]-4-methyl-2H-pyridazin-3-one] | 23.1 |
| Cc1cc(Cc2ccc(Cl)c(Oc3cc(C#N)cc(C#N)c3)c2)n[nH]c1=O [I-135, 5-[2-Chloro-5-(5-methyl-6-oxo-1,6-dihydro-pyridazin-3-ylmethyl)-phenoxy]-isophthalonitrile] | 12.5 |
| O=c1ccc(Cc2ccc(Cl)c(Oc3cc(Cl)ccc3Br)c2F)n[nH]1 [I-136, 6-[3-(2-Bromo-5-chloro-phenoxy)-4-chloro-2-fluoro-benzyl]-2H-pyridazin-3-one] | 8 |
| O=c1ccc(Cc2cc(Oc3cc(Br)cc(Br)c3)c3occc3c2)n[nH]1 [I-142, 6-[7-(3,5-Dibromo-phenoxy)-benzofuran-5-ylmethyl]-2H-pyridazin-3-one] | 15 |
| CCc1ccc(Cc2ccc(=O)[nH]n2)c(F)c1Oc1cc(Cl)cc(C#N)c1 [I-224, 3-Chloro-5-[6-ethyl-2-fluoro-3-(6-oxo-1,6-dihydro-pyridazin-3-ylmethyl)-phenoxy]-benzonitrile] | 18 |
| Cc1cc(Cc2ccc(Cl)c(Oc3cc(C#N)cc(C(F)F)c3)c2F)n[nH]c1=O [I-237, 3-[6-Chloro-2-fluoro-3-(5-methyl-6-oxo-1,6-dihydro-pyridazin-3-ylmethyl)-phenoxy]-5-difluoromethyl-benzonitrile] | 12.8 |
